{
  "source": "patent US20100034749A1",
  "about": "“Use of a Cationic Collodal Preparation for the Diagnosis and Treatment of Ocular Diseases” (MediGene AG, priority 2006, published 2010)",
  "test_system": "laser induced CNV model in mice",
  "test": "SLO imaging after i.v. application in laser induced CNV mouse model",
  "type": "in vivo, C57/BI6 mice",
  "protocol": "For animal experiments, the laser induced CNV model in mice was used as described by Tobe et al. (1998). In brief, C57/BI6 mice (8-12 weeks old) were anesthetized, pupils were dilated and 4-6 burns of 100 μm diameter were produced with a laser (100 mW, 100 μs). In 80-90% of the laser burns, CNV develops within about 14 days.\nAs read-out, Scanning Laser Opthalmoscopy (SLO), flat mount and histology are performed. 100 μl of the respective formulation was applied intravenously, immediately followed by SLO over a time course of about 120 min. Three different EndoTAG formulations are selected:\nEndoTAG-A: DOTAP/DOPC/OG-DHPE=60/35/5 mol %, 10 mM total liposomal components in 10% trehalose (produced as described in Example 1). EndoTAG-B: DOTAP/DOPC/OG-DOPE=[…] mol %, 10 mM total liposomal components in 10% trehalose EndoTAG-C: DOTAP/DOPC/OG-DOPE/PEG-DOPE=60/30/5/5 mol %, 10 mM total liposomal components in 10% trehalose\nAs control, neutral liposomes (DOPC/OG-DOPE=95/5 mol %, 10 mM total lipid, in trehalose) is applied as well as an aqueous solution of Oregon Green (0.5 mM). Additional animals are used to carry out flat mounts and histology by sacrificing animals at the respective peak intensity as observed in SLO.",
  "data": [
    {"substance": "Oregon Green [free dye]", "values": [
      {"measurement": "Accumulation at lesion site / neovascular sites", "setting": "SLO after i.v. application", "result": "did not show an accumulation"},
      {"measurement": "Staining of the vasculature / neovasculature", "setting": "after 60 min, equivalent concentrations", "result": "no increased staining of the vasculature"}
    ]}
  ]
}
